Measurements published in PubChem BioAssay (NCI).
Where “and” joins values, the source holds several entries; their conditions need not be identical. Equal values may be shown once.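 Five concentrations, 48 hours, 96-well plates. At the GI50, growth is halved. Definition used: TGI = concentration required for complete inhibition of growth.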

Tests used:
Assay in all cases: growth of human tumour cells (NCI), 48 h
[1] = system: EKVX NSCLC
[2] = system: NCI-H23 lung
[3] = system: UO-31 renal
[4] = system: HCC-2998 colon
[5] = system: SK-MEL-28 melanoma
[6] = system: LOX IMVI melanoma
[7] = system: OVCAR-8 ovarian
[8] = system: RPMI-8226 leukemia
[9] = system: HL-60(TB) leukemia
[10] = system: IGROV1 ovarian

Row | Structure (SMILES) | GI50 [1] [µM] | TGI [1] [µM] | TGI [2] | GI50 [3] [µM] | TGI [3] | GI50 [4] | TGI [4] | GI50 [5] | TGI [5] | GI50 [6] | TGI [6] | GI50 [7] | TGI [7] | GI50 [8] | TGI [8] | GI50 [9] | TGI [9] | GI50 [10] | TGI [10] | GI50 [2] [µM]
1 | NC(CSC(c1ccccc1)(c1ccccc1)c1ccccc1)C(=O)O (stereo not drawn) | 3.24 | 16 | 7.15 µM and 51.7 µM | 9.89 | 107 µM and > 100 µM | 2.52 µM and 2.64 µM | 7.4 µM and 10.8 µM and 23.9 µM | 12.2 µM and 4.46 µM | 110 µM and > 100 µM | 6.26 µM and 4.14 µM | 24.3 µM and > 100 µM | 1.93 µM and 1.05 µM | 51.5 µM and 35.7 µM and > 100 µM | 3.53 µM and 0.501 µM | 37.3 µM and 22.4 µM and 20.7 µM | 2.54 µM and 2.11 µM | 5.93 µM and 1.53 µM and 8.62 µM | 3.98 µM and 4.69 µM | 84.8 µM and > 100 µM | 
2 | O=C1c2ccccc2C(=O)c2c1ccc1conc21 |  | 3.87 | 3.3 µM |  | 9.53 µM |  | 29.8 µM |  | 7.94 µM |  | 1.78 µM |  | 4.21 µM |  | 3.85 µM |  | 4.16 µM |  | 5.88 µM | 
3 | COc1ccc(-n2nc(C)c3c(Nc4ccc(NC(=O)Nc5cccc(C(F)(F)F)c5)cc4)ncnc32)cc1 | 1.93 | 4.34 | 3.68 µM | 1.51 | 2.86 µM | 2.24 µM | 5.31 µM | 1.85 µM | 4.76 µM | 1.3 µM | 2.65 µM | 1.93 µM | 4.39 µM | 1.78 µM | 4.69 µM | 2.31 µM | 5.51 µM | 2 µM | 4.18 µM | 1.68
4 | O=C(CCN1CCCC1)Nc1ccc2c(Nc3ccc(F)cc3)c3ccccc3nc2c1 | 1.89 | 4.69 | 2.63 µM | 1.16 | 2.55 µM | 1.16 µM | 2.52 µM | 1.7 µM | 3.24 µM | 0.606 µM | 2.01 µM | 1.56 µM | 8.73 µM | 0.981 µM | 5.51 µM | 1.51 µM | 3.75 µM | 1.03 µM | 3.27 µM | 1.08
5 | C=CC[P@]1(=O)O[C@H](c2ccccc2)C(C)N1C(C)C (stereo partly drawn) |  | > 100 | > 100 µM |  | > 100 µM |  | > 100 µM |  | > 100 µM |  | > 100 µM |  | > 100 µM |  | > 100 µM |  | > 100 µM |  | > 100 µM | 
6 | O=C(Nc1cc(Cl)c(I)c(Cl)c1)C(F)(F)F |  | > 100 | 70.8 µM |  | 73.7 µM |  | 34.2 µM |  | 74 µM |  |  |  | 56.8 µM |  | > 100 µM |  | 58.3 µM |  | > 100 µM | 
7 | CCN(Cc1ccc(Cl)c(Cl)c1)c1ccc2nc(N)nc(N)c2c1C |  | 2.82 | 1.49 µM | 0.0457 | 1.64 µM | 0.039 µM | 1.24 µM | 0.157 µM | 1.83 µM |  |  |  |  | 0.0968 µM | 2.83 µM | 0.195 µM | 2.54 µM | < 0.01 µM | 1.58 µM | 0.0284
